Experimental data as given in paper PMC6110851, “An Optimized MicroPET Imaging Method for the Distribution and Synergies of Natural Products” (Frontiers in Pharmacology, 2018).

Experiments:
[1] = MicroPET biodistribution of [^18F]-GA in mice; assay type: in vivo; settings: for time to peak in organ: after injection
Description: The mice were grouped by weight and housed in cages of the climate control room (25°C), with a photoperiod 12:12-h. During feeding, mice were free to access food and water. Mice were fasted for 24 h before the experiment. The mice were anesthetized with 4% isoflurane while preparing for scanning ([Constantinescu et al., 2013b]; [Cui et al., 2017]). Eighteen healthy male Kunming mice, weighing 20 ± 2 g, were divided into three groups, which were control group, once-administered (OA) group and long-term administration (LA) group. In the OA group, 1 h before the administration of [^18F]-GA, the mice were orally treated with PG polysaccharides. In the LA group, the mice were orally given the PG polysaccharides for 7 days, but not before the administration of [^18F]-GA.
Rice received a tail vein injection (8.67 ± 2.14 MBq/μg) of [^18F]-GA and placed in the scanner bed and mouse-imaging room immediately ([Constantinescu et al., 2013b]; [O’Doherty et al., 2017]). Firstly, 2 h PET scanning was performed using an Inveon-dedicated PET scanner. The average delay between injection and starting of PET scanning was 3.5 min. Rice were maintained stable under 4% isoflurane anesthesia throughout scanning. The PET list-mode data were dynamically classified into 23 3D sinograms of span and three ring difference. After Fourier recombination, the data were reconstructed using a 2D ordered-subset expectation maximization algorithm. Random events were excluded before reconstruction. The response of detector is normalized using a component-based approach. All dynamic images were corrected for radioactive decay automatically. The PET images were reconstructed by a cone beam algorithm into 480 × 480 × 632 image arrays. After the reconstruction, images were spatially transformed to match the PET images ([Constantinescu et al., 2013a],[b]).
The reconstruction of the image was performed using the PMOD software (PMOD Technologies). The 3D volumes of interest (VOIs) were drawn manually of the following organs: brain, heart, liver, lungs, kidneys, cortical bone, and gallbladder. The organs were carefully identified and VOIs were drawn as irregular contours on high-resolution PET images obtained from each mouse ([Constantinescu et al., 2013b]; [Garg et al., 2017]). The size of each VOI was less than the actual size of each organ to minimize the effects of PET on adjacent organ spills. The VOIs drawing was verified by a second operator. The VOIs of cortical bone were generated by first using PET image to depict the entire femur bone ([Constantinescu et al., 2013b]). The VOI was transferred to a dynamic PET image and the mean time-activity curve (TAC) of the decay correction was extracted for each target organ ([Constantinescu et al., 2013b]).

[2] = Safety evaluation during the MicroPET experiment (vital signs, electrocardiograms); assay type: in vivo, mice
[3] = mice, tail vein injection, Time(s) 60
[4] = mice, tail vein injection, Time(s) 180
[5] = mice, tail vein injection, Time(s) 300
[6] = mice, tail vein injection, Time(s) 420
[7] = mice, tail vein injection, Time(s) 660
[8] = mice, tail vein injection, Time(s) 780
[9] = mice, tail vein injection, Time(s) 900
[10] = mice, tail vein injection, Time(s) 1020
[11] = mice, tail vein injection, Time(s) 1140
[12] = mice, tail vein injection, Time(s) 1350
[13] = mice, tail vein injection, Time(s) 1650
[14] = mice, tail vein injection, Time(s) 1950
[15] = mice, tail vein injection, Time(s) 2250
[16] = mice, tail vein injection, Time(s) 2700
[17] = mice, tail vein injection, Time(s) 3300
[18] = mice, tail vein injection, Time(s) 3900
[19] = mice, tail vein injection, Time(s) 4500
[20] = mice, tail vein injection, Time(s) 5100
[21] = mice, tail vein injection, Time(s) 5700
[22] = mice, tail vein injection, Time(s) 6300
[23] = mice, tail vein injection, Time(s) 6900

CC1(C)[C@@H](O)CC[C@]2(C)[C@H]3C(=O)C=C4[C@@H]5C[C@@](C)(C(=O)NCCCC[18F])CC[C@]5(C)CC[C@@]4(C)[C@]3(C)CC[C@@H]12 [[^18F]-GA, [^18F]-Glycyrrhetinic acid]
organ of highest uptake ([1]; all mice): highest uptake was found in the liver | time to peak in organ ([1]; gallbladder, mice, maintained on the peak): 30 min | time to peak in organ ([1]; heart, lung, and kidney, mice): immediately reached a peak | time to peak in organ ([1]; liver, mice): 7 min | brain concentrations ([1]; mice, MicroPET 3-130 min): consistently low | route of excretion of radioactivity ([1]; mice, radiotracer found in the gallbladder): excreted via the biliary | Organs (%ID/g) Brain [1, 3]: 1.19 %ID/g | Organs (%ID/g) Gallbladder [1, 3]: 11.19 %ID/g | Organs (%ID/g) Heart [1, 3]: 12.13 %ID/g | Organs (%ID/g) Kidney [1, 3]: 9.67 %ID/g | Organs (%ID/g) Liver [1, 3]: 13.03 %ID/g | Organs (%ID/g) Brain [1, 4]: 0.79 %ID/g | Organs (%ID/g) Gallbladder [1, 4]: 14.59 %ID/g | Organs (%ID/g) Heart [1, 4]: 6.52 %ID/g | Organs (%ID/g) Kidney [1, 4]: 8.98 %ID/g | Organs (%ID/g) Liver [1, 4]: 17.00 %ID/g | Organs (%ID/g) Brain [1, 5]: 0.73 %ID/g | Organs (%ID/g) Gallbladder [1, 5]: 19.88 %ID/g | Organs (%ID/g) Heart [1, 5]: 4.75 %ID/g | Organs (%ID/g) Kidney [1, 5]: 7.13 %ID/g | Organs (%ID/g) Liver [1, 5]: 16.13 %ID/g | Organs (%ID/g) Heart [1, 6]: 4.07 %ID/g | Organs (%ID/g) Kidney [1, 6]: 6.26 %ID/g | Organs (%ID/g) Liver [1, 6]: 14.94 %ID/g | Organs (%ID/g) Brain [1, 7]: 0.58 %ID/g | Organs (%ID/g) Gallbladder [1, 7]: 26.93 %ID/g | Organs (%ID/g) Heart [1, 7]: 3.50 %ID/g | Organs (%ID/g) Kidney [1, 7]: 5.00 %ID/g | Organs (%ID/g) Liver [1, 7]: 12.33 %ID/g | Organs (%ID/g) Lung [1, 7]: 2.45 %ID/g | Organs (%ID/g) Brain [1, 8]: 0.61 %ID/g | Organs (%ID/g) Gallbladder [1, 8]: 29.01 %ID/g | Organs (%ID/g) Heart [1, 8]: 3.33 %ID/g | Organs (%ID/g) Kidney [1, 8]: 4.73 %ID/g | Organs (%ID/g) Liver [1, 8]: 11.32 %ID/g | Organs (%ID/g) Brain [1, 9]: 0.54 %ID/g | Organs (%ID/g) Gallbladder [1, 9]: 30.51 %ID/g | Organs (%ID/g) Kidney [1, 9]: 4.52 %ID/g | Organs (%ID/g) Liver [1, 9]: 10.43 %ID/g | Organs (%ID/g) Brain [1, 10]: 0.56 %ID/g | Organs (%ID/g) Gallbladder [1, 10]: 33.20 %ID/g | Organs (%ID/g) Heart [1, 10]: 3.03 %ID/g | Organs (%ID/g) Kidney [1, 10]: 4.23 %ID/g | Organs (%ID/g) Liver [1, 10]: 9.66 %ID/g | Organs (%ID/g) Brain [1, 11]: 0.52 %ID/g | Organs (%ID/g) Gallbladder [1, 11]: 34.49 %ID/g | Organs (%ID/g) Heart [1, 11]: 2.92 %ID/g | Organs (%ID/g) Kidney [1, 11]: 4.04 %ID/g | Organs (%ID/g) Liver [1, 11]: 9.05 %ID/g | Organs (%ID/g) Brain [1, 12]: 0.49 %ID/g | Organs (%ID/g) Gallbladder [1, 12]: 36.96 %ID/g | Organs (%ID/g) Kidney [1, 12]: 3.71 %ID/g | Organs (%ID/g) Liver [1, 12]: 8.34 %ID/g | Organs (%ID/g) Brain [1, 13]: 0.41 %ID/g | Organs (%ID/g) Gallbladder [1, 13]: 40.92 %ID/g | Organs (%ID/g) Heart [1, 13]: 2.67 %ID/g | Organs (%ID/g) Kidney [1, 13]: 3.30 %ID/g | Organs (%ID/g) Liver [1, 13]: 7.55 %ID/g | Organs (%ID/g) Brain [1, 14]: 0.42 %ID/g | Organs (%ID/g) Gallbladder [1, 14]: 42.68 %ID/g | Organs (%ID/g) Heart [1, 14]: 2.64 %ID/g | Organs (%ID/g) Liver [1, 14]: 6.96 %ID/g | Organs (%ID/g) Brain [1, 15]: 0.39 %ID/g | Organs (%ID/g) Gallbladder [1, 15]: 44.48 %ID/g | Organs (%ID/g) Heart [1, 15]: 2.82 %ID/g | Organs (%ID/g) Kidney [1, 15]: 2.79 %ID/g | Organs (%ID/g) Liver [1, 15]: 6.50 %ID/g | Organs (%ID/g) Brain [1, 16]: 0.42 %ID/g | Organs (%ID/g) Gallbladder [1, 16]: 43.79 %ID/g | Organs (%ID/g) Heart [1, 16]: 2.37 %ID/g | Organs (%ID/g) Kidney [1, 16]: 2.52 %ID/g | Organs (%ID/g) Liver [1, 16]: 5.90 %ID/g | Organs (%ID/g) Brain [1, 17]: 0.37 %ID/g | Organs (%ID/g) Gallbladder [1, 17]: 45.86 %ID/g | Organs (%ID/g) Heart [1, 17]: 2.43 %ID/g | Organs (%ID/g) Kidney [1, 17]: 2.22 %ID/g | Organs (%ID/g) Liver [1, 17]: 5.27 %ID/g | Organs (%ID/g) Brain [1, 18]: 0.37 %ID/g | Organs (%ID/g) Gallbladder [1, 18]: 46.86 %ID/g | Organs (%ID/g) Heart [1, 18]: 2.63 %ID/g | Organs (%ID/g) Liver [1, 18]: 4.83 %ID/g | Organs (%ID/g) Brain [1, 19]: 0.45 %ID/g | Organs (%ID/g) Gallbladder [1, 19]: 41.98 %ID/g | Organs (%ID/g) Heart [1, 19]: 2.11 %ID/g | Organs (%ID/g) Kidney [1, 19]: 1.92 %ID/g | Organs (%ID/g) Liver [1, 19]: 4.51 %ID/g | Organs (%ID/g) Brain [1, 20]: 0.38 %ID/g | Organs (%ID/g) Gallbladder [1, 20]: 39.31 %ID/g | Organs (%ID/g) Heart [1, 20]: 2.28 %ID/g | Organs (%ID/g) Kidney [1, 20]: 1.82 %ID/g | Organs (%ID/g) Liver [1, 20]: 4.27 %ID/g | Organs (%ID/g) Brain [1, 21]: 0.41 %ID/g | Organs (%ID/g) Gallbladder [1, 21]: 36.96 %ID/g | Organs (%ID/g) Heart [1, 21]: 1.96 %ID/g | Organs (%ID/g) Liver [1, 21]: 3.90 %ID/g | Organs (%ID/g) Brain [1, 22]: 0.46 %ID/g | Organs (%ID/g) Gallbladder [1, 22]: 39.06 %ID/g | Organs (%ID/g) Heart [1, 22]: 2.18 %ID/g | Organs (%ID/g) Kidney [1, 22]: 1.65 %ID/g | Organs (%ID/g) Liver [1, 22]: 3.82 %ID/g | Organs (%ID/g) Brain [1, 23]: 0.48 %ID/g | Organs (%ID/g) Gallbladder [1, 23]: 41.97 %ID/g | Organs (%ID/g) Heart [1, 23]: 2.64 %ID/g | Organs (%ID/g) Kidney [1, 23]: 1.59 %ID/g | Organs (%ID/g) Liver [1, 23]: 3.64 %ID/g | change in vital signs or electrocardiograms [2]: no change in vital signs or electrocardiograms significantly
